This note sets out measurements from US8669271B2 (Boehringer Ingelheim International GmbH, priority 2010, dated 2014).

The EC50 is the concentration giving half of the maximal effect.

This assay concerns the target T1, human GPR119 (Homo sapiens, UniProt Q8TDV5).
T1 construct: expression vector for human GPR119 cDNA (Acc. No. NP_848566); expressed in transfected cells
T1 sequence (Q8TDV5 1-335): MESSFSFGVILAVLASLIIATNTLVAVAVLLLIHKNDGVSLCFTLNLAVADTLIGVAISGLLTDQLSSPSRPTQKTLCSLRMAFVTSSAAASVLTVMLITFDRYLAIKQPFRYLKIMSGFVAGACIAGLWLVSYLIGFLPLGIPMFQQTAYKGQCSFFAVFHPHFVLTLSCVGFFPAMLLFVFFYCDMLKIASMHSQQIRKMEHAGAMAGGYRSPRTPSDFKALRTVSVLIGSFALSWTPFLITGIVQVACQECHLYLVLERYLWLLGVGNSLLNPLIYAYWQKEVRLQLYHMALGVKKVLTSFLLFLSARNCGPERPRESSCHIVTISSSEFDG
Put plainly: AlphaScreen cAMP assay in Min-6/hGPR119 cells (activation of GPR119, intracellular cAMP). The format is cell-based. The conditions noted are these: MIN6 cells stably transfected with human GPR119; cAMP by AlphaScreen after 45 minutes incubation at room temperature. The procedure, abridged: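 MIN6 cells stably expressing human GPR119, seeded 24 h before treatment; compounds applied 45 min at ~20 °C in Hepes-buffered saline pH 7.4 with 0.5 mM IBMX, 0.1% BSA, 1% DMSO final. Intracellular cAMP measured by AlphaScreen.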
As to `CC(C)(C)OC(=O)N1CCC(C2(C)Cc3cc(-c4ccc(CS(C)(=O)=O)cc4)ncc3O2)CC1` (stereo not shown) [Example 80, 4-[5-(4-Methanesulfonylmethyl-phenyl)-2-methyl-2,3-dihydro-furo[2,3-c]pyridin-2-yl]-piperidine-1-carboxylic acid tert-butyl ester], it took 24 nM to reach a half-maximal effect (EC50).
`CC(C)(C)OC(=O)N1CCC(C2(C)Cc3cc(C4CCN(S(C)(=O)=O)CC4)ncc3O2)CC1` (stereo not shown) [Example 81, 4-[5-(1-Methanesulfonyl-piperidin-4-yl)-2-methyl-2,3-dihydro-furo[2,3-c]pyridin-2-yl]-piperidine-1-carboxylic acid tert-butyl ester] had an EC50 of 53 nM.
Take `CC(C)(C)OC(=O)N1CCC(C2(C)Cc3cc(-c4ccc(CS(C)(=O)=O)cc4F)ncc3O2)CC1` (stereo not shown) [Example 82]: the concentration for a half-maximal effect (EC50) turned out to be 21 nM.
Molecule `CC(C)(C)OC(=O)N1CCC([C@]2(C)Cc3cc(-c4ccc(S(C)(=O)=O)cc4)ncc3O2)CC1` [Example 83, (S)-4-[5-(4-Methanesulfonyl-phenyl)-2-methyl-2,3-dihydro-furo[2,3-c]pyridin-2-yl]-piperidine-1-carboxylic acid tert-butyl ester] displayed an EC50 of 4 nM.
In turn, `CC(C)(C)OC(=O)N1CCC([C@@]2(C)Cc3cc(-c4ccc(S(C)(=O)=O)cc4)ncc3O2)CC1` [Example 84, (R)-4-[5-(4-Methanesulfonyl-phenyl)-2-methyl-2,3-dihydro-furo[2,3-c]pyridin-2-yl]-piperidine-1-carboxylic acid tert-butyl ester] showed an EC50 of 172 nM.
On to `CC1(OC(=O)N2CCC([C@]3(C)Cc4cc(-c5ccc(S(C)(=O)=O)cc5)ncc4O3)CC2)CC1` [Example 85, (S)-4-[5-(4-Methanesulfonyl-phenyl)-2-methyl-2,3-dihydro-furo[2,3-c]pyridin-2-yl]-piperidine-1-carboxylic acid 1-methyl-cyclopropyl ester], for which a half-maximal effect (EC50) was put at 7 nM.
Turning to `CC(C)OC(=O)N1CCC([C@]2(C)Cc3cc(-c4ccc(S(C)(=O)=O)cc4)ncc3O2)CC1` [Example 86, (S)-4-[5-(4-Methanesulfonyl-phenyl)-2-methyl-2,3-dihydro-furo[2,3-c]pyridin-2-yl]-piperidine-1-carboxylic acid isopropyl ester], the EC50 amounted to 11 nM.
For `CC1(OC(=O)N2CCC([C@]3(C)Cc4cc(C5=CCN(S(C)(=O)=O)CC5)ncc4O3)CC2)CC1` [Example 88, (S)-4-[5-(1-Methanesulfonyl-1,2,3,6-tetrahydro-pyridin-4-yl)-2-methyl-2,3-dihydro-furo[2,3-c]pyridin-2-yl]-piperidine-1-carboxylic acid 1-methyl-cyclopropyl ester], a half-maximal effect (EC50) was put at 13 nM.
Regarding `CC(C)OC(=O)N1CCC([C@]2(C)Cc3cc(C4=CCN(S(C)(=O)=O)CC4)ncc3O2)CC1` [Example 89, (S)-4-[5-(1-Methanesulfonyl-1,2,3,6-tetrahydro-pyridin-4-yl)-2-methyl-2,3-dihydro-furo[2,3-c]pyridin-2-yl]-piperidine-1-carboxylic acid isopropyl ester], the EC50 worked out at 7 nM.
Molecule `CC(C)(C)OC(=O)N1CCC(C2Cc3cc(N4CCN(S(C)(=O)=O)CC4)ncc3O2)CC1` (stereo not shown) [Example 90, 4-[5-(4-Methanesulfonyl-piperazin-1-yl)-2,3-dihydro-furo[2,3-c]pyridin-2-yl]-piperidine-1-carboxylic acid tert-butyl ester] registered an EC50 of 19 nM.
As to `CC(C)(C)OC(=O)N1CCC(C2Cc3nc(N4CCN(S(C)(=O)=O)CC4)ncc3O2)CC1` (stereo not shown) [Example 91, 4-[2-(4-Methanesulfonyl-piperazin-1-yl)-6,7-dihydro-furo[3,2-d]pyrimidin-6-yl]-piperidine-1-carboxylic acid tert-butyl ester], a half-maximal effect (EC50) was put at 603 nM.
Consider `CC(C)(C)OC(=O)N1CCC(C2Cc3cc(C4=CCN(S(C)(=O)=O)CC4)ncc3O2)CC1` (stereo not shown) [Example 92, 4-[5-(1-Methanesulfonyl-1,2,3,6-tetrahydro-pyridin-4-yl)-2,3-dihydro-furo[2,3-c]pyridin-2-yl]-piperidine-1-carboxylic acid tert-butyl ester], for which the EC50 was determined as 12 nM.
The molecule `CC(C)(C)OC(=O)N1CCC(C2Cc3cc(C4CCN(S(C)(=O)=O)CC4)ncc3O2)CC1` (stereo not shown) [Example 93, 4-[5-(1-Methanesulfonyl-piperidin-4-yl)-2,3-dihydro-furo[2,3-c]pyridin-2-yl]-piperidine-1-carboxylic acid tert-butyl ester] returned an EC50 of 32 nM.
The molecule `CC(C)(C)OC(=O)N1CCC(C2Cc3cc(C4=CCN(S(C)(=O)=O)CC4)ccc3O2)CC1` (stereo not shown) [Example 94, 4-[5-(1-Methanesulfonyl-1,2,3,6-tetrahydro-pyridin-4-yl)-2,3-dihydro-benzofuran-2-yl]-piperidine-1-carboxylic acid tert-butyl ester] showed an EC50 of 7 nM.
`CC(C)OC(=O)N1CCC(C2Cc3cc(C4=CCN(S(C)(=O)=O)CC4)ncc3O2)CC1` (stereo not shown) [Example 95, 4-[5-(1-Methanesulfonyl-1,2,3,6-tetrahydro-pyridin-4-yl)-2,3-dihydro-furo[2,3-c]pyridin-2-yl]-piperidine-1-carboxylic acid isopropyl ester] gave an EC50 of 17 nM.
On to `CS(=O)(=O)N1CC=C(c2cc3c(cn2)OC(C2CCN(C(=O)OC4CCC4)CC2)C3)CC1` (stereo not shown) [Example 96, 4-[5-(1-Methanesulfonyl-1,2,3,6-tetrahydro-pyridin-4-yl)-2,3-dihydro-furo[2,3-c]pyridin-2-yl]-piperidine-1-carboxylic acid cyclobutyl ester], for which a half-maximal response (EC50) required 15 nM.
On to `CC1(OC(=O)N2CCC(C3Cc4cc(C5=CCN(S(C)(=O)=O)CC5)ncc4O3)CC2)CC1` (stereo not shown) [Example 97, 4-[5-(1-Methanesulfonyl-1,2,3,6-tetrahydro-pyridin-4-yl)-2,3-dihydro-furo[2,3-c]pyridin-2-yl]-piperidine-1-carboxylic acid 1-methyl-cyclopropyl ester], for which the EC50 stood at 7 nM.
As for `CCS(=O)(=O)N1CCN(c2cc3c(cn2)OC(C2CCN(C(=O)OC(C)(C)C)CC2)C3)CC1` (stereo not shown) [Example 98], a half-maximal effect (EC50) was put at 15 nM.
Then `CC(C)S(=O)(=O)N1CCN(c2cc3c(cn2)OC(C2CCN(C(=O)OC(C)(C)C)CC2)C3)CC1` (stereo not shown) [Example 99, 4-{5-[4-(Propane-2-sulfonyl)-piperazin-1-yl]-2,3-dihydro-furo[2,3-c]pyridin-2-yl}-piperidine-1-carboxylic acid tert-butyl ester], with 48 nM; and `CCCS(=O)(=O)N1CCN(c2cc3c(cn2)OC(C2CCN(C(=O)OC(C)(C)C)CC2)C3)CC1` (stereo not shown) [Example 100, 4-{5-[4-(Propane-1-sulfonyl)-piperazin-1-yl]-2,3-dihydro-furo[2,3-c]pyridin-2-yl}-piperidine-1-carboxylic acid ten-butyl ester], with 9 nM; and `CC(C)(C)OC(=O)N1CCC(C2Cc3cc(N4CCN(S(=O)(=O)C5CC5)CC4)ncc3O2)CC1` (stereo not shown) [Example 101, 4-[5-(4-Cyclopropanesulfonyl-piperazin-1-yl)-2,3-dihydro-furo[2,3-c]pyridin-2-yl]-piperidine-1-carboxylic acid tert-butyl ester], with 23 nM.
With `CN(C1CCN(c2cc3c(cn2)OC(C2CCN(C(=O)OC(C)(C)C)CC2)C3)CC1)S(C)(=O)=O` (stereo not shown) [Example 102, 4-{5-[4-(Methanesulfonyl-methyl-amino)-piperidin-1-yl]-2,3-dihydro-furo[2,3-c]pyridin-2-yl}-piperidine-1-carboxylic acid tert-butyl ester], the midpoint of the response, the EC50, lay at 637 nM.
